Test results published in ChEMBL document CHEMBL1212786 (Antimicrob Agents Chemother, 2010).

Legend:
[1] = AUC (2 to 24 hrs) in Sprague-Dawley rat whole blood at 30 mg/kg, po by LC/MS/MS analysis; assay type: ADME, organism-based; set-up: time 2-24 hr, dose 30 mg/kg, route oral
[2] = Apparent elimination half life in Sprague-Dawley rat at 2 mg/kg, iv by LC/MS/MS analysis; assay type: ADME, organism-based; set-up: dose 2 mg/kg, route intravenous; settings: in vivo
[3] = AUC (0 to infinity) in monkey at 15 mg/kg, po after 24 hrs by LC/MS/MS analysis; assay type: ADME, organism-based, Macaca mulatta; set-up: time infinity, dose 15 mg/kg, route oral; settings: rhesus monkey, plasma
[4] = tested on: Hepatitis C virus; experiment: microbe, parasite or virus in culture; settings: Huh-7, 48 h
Description: Antiviral activity against Hepatitis C virus infected in human Huh7ET cells assessed as inhibition of viral replication after 48 hrs by luciferase reporter gene assay

[5] = AUC (0 to infinity) in monkey at 1.4 mg/kg, iv after 24 hrs by LC/MS/MS analysis; assay type: ADME, organism-based, Macaca mulatta; set-up: time infinity, dose 1.4 mg/kg, route intravenous; settings: rhesus monkey, plasma
[6] = tested on: Hepatitis C virus; experiment: microbe, parasite or virus in culture; settings: Huh-7, 72 h
Description: Antiviral activity against Hepatitis C virus infected in human Huh7ET cells assessed as inhibition of viral replication after 72 hrs by RT-PCR analysis

[7] = Oral bioavailability in monkey at 7.5 mg/kg after 24 hrs by LC/MS/MS analysis; assay type: ADME, organism-based, Macaca mulatta; settings: rhesus monkey, in vivo
[8] = Apparent elimination half life in monkey at 7.5 mg/kg, po after 24 hrs by LC/MS/MS analysis; assay type: ADME, organism-based, Macaca mulatta; set-up: dose 7.5 mg/kg, route oral; settings: rhesus monkey, in vivo
[9] = AUC (2 to 24 hrs) in Sprague-Dawley rat liver at 10 mg/kg, po by LC/MS/MS analysis; assay type: ADME, organism-based; set-up: time 2-24 hr, dose 10 mg/kg, route oral
[10] = tested on: Hepatitis C virus; experiment: microbe, parasite or virus in culture; settings: Huh-7, 72 h; remark: listed apart in the source
[11] = AUC (0 to infinity) in Sprague-Dawley rat at 20 mg/kg, po after 24 hrs by LC/MS/MS analysis; assay type: ADME, organism-based; set-up: time infinity, dose 20 mg/kg, route oral; settings: plasma
[12] = AUC (0 to infinity) in Sprague-Dawley rat at 5 mg/kg, iv after 24 hrs by LC/MS/MS analysis; assay type: ADME, organism-based; set-up: time infinity, dose 5 mg/kg, route intravenous; settings: plasma
[13] = Systemic clearance in Sprague-Dawley rat at 2 mg/kg, iv after 24 hrs by LC/MS/MS analysis; assay type: ADME, organism-based; set-up: dose 2 mg/kg, route intravenous; settings: in vivo
[14] = tested on: Liver microsomes; experiment: Intrinsic clearance in human liver microsomes at 1 uM after 5 to 30 mins by MS analysis in presence of NADPH; assay type: ADME, Microsome
[15] = Cytotoxicity against human Huh7ET cells assessed as lactate dehydrogenase release after 72 hrs; assay type: cell-based, Huh-7
[16] = Apparent elimination half life in Sprague-Dawley rat at 5 mg/kg, iv by LC/MS/MS analysis; assay type: ADME, organism-based; set-up: dose 5 mg/kg, route intravenous; settings: in vivo
[17] = Oral bioavailability in monkey at 5 mg/kg after 24 hrs by LC/MS/MS analysis; assay type: ADME, organism-based, Macaca mulatta; settings: rhesus monkey, in vivo
[18] = biological target: Cytochrome P450 3A4 (Homo sapiens, UniProt P08684); experiment: Inhibition of human recombinant CYP3A4 after 30 mins; assay type: ADME
Sequence of Cytochrome P450 3A4 (P08684 whole entry): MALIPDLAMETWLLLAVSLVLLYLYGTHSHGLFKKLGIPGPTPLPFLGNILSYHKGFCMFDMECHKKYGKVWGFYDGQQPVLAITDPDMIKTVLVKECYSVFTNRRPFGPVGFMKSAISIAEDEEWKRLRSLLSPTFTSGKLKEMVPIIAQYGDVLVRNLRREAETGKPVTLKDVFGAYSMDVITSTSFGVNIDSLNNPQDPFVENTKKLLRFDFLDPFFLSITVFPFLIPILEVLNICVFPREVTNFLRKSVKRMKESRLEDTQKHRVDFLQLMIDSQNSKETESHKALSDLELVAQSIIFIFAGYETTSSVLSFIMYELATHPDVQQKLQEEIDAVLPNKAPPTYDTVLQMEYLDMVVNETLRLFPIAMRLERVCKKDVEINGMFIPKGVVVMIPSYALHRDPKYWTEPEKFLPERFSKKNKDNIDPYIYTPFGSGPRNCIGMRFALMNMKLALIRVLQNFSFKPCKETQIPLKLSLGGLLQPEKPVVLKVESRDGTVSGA

[19] = Cytotoxicity against human PBMC assessed as cell viability at 10 uM after 18 hrs relative to control; assay type: cell-based; settings: read-out: Activity
[20] = tested on: Hepatitis C virus; experiment: Antiviral activity against Hepatitis C virus infected in human Huh7ET cells assessed as inhibition of viral replication at 0.02 to 5 uM by luciferase reporter gene assay; assay type: functional, organism-based; settings: Hepacivirus hominis, Huh-7, TDE = time-dependent effect
[21] = Apparent volume of distribution in monkey at 1.4 mg/kg, iv after 24 hrs by LC/MS/MS analysis; assay type: ADME, organism-based, Macaca mulatta; set-up: dose 1.4 mg/kg, route intravenous; settings: rhesus monkey, in vivo, read-out: Vz
[22] = Tmax in monkey at 7. 5 mg/kg, po by LC/MS/MS analysis; assay type: ADME, organism-based, Macaca mulatta; set-up: dose 5 mg/kg, route oral; settings: rhesus monkey, in vivo
[23] = Systemic clearance in monkey at 1 mg/kg, iv after 24 hrs by LC/MS/MS analysis; assay type: ADME, organism-based, Macaca mulatta; set-up: dose 1 mg/kg, route intravenous; settings: rhesus monkey, in vivo
[24] = Apparent elimination half life in monkey at 1.4 mg/kg, iv by LC/MS/MS analysis; assay type: ADME, organism-based, Macaca mulatta; set-up: dose 1.4 mg/kg, route intravenous; settings: rhesus monkey, in vivo
[25] = Apparent elimination half life Sprague-Dawley rat at 10 mg/kg, po after 24 hrs by LC/MS/MS analysis; assay type: ADME, organism-based; set-up: dose 10 mg/kg, route oral; settings: in vivo
[26] = AUC (0 to infinity) in monkey at 7.5 mg/kg, po after 24 hrs by LC/MS/MS analysis; assay type: ADME, organism-based, Macaca mulatta; set-up: dose 7.5 mg/kg, route oral, time infinity; settings: rhesus monkey, plasma
[27] = tested on: Hepatocyte; experiment: Cellular uptake in human hepatocytes assessed per mg of cellular protein association with nonparenchymal fraction at 0.378 uM after 1 hr by LC/MS/MS analysis; assay type: ADME, cell-based
[28] = AUC (0 to infinity) in Sprague-Dawley rat at 2 mg/kg, iv after 24 hrs by LC/MS/MS analysis; assay type: ADME, organism-based; set-up: time infinity, dose 2 mg/kg, route intravenous; settings: plasma
[29] = AUC (0 to infinity) in Sprague-Dawley rat at 10 mg/kg, po after 24 hrs by LC/MS/MS analysis; assay type: ADME, organism-based; set-up: time infinity, dose 10 mg/kg, route oral; settings: plasma
[30] = biological target: Cytochrome P450 2D6 (Homo sapiens, UniProt P10635); experiment: Inhibition of human recombinant CYP2D6 after 30 mins; assay type: ADME
Sequence of Cytochrome P450 2D6 (P10635 whole entry): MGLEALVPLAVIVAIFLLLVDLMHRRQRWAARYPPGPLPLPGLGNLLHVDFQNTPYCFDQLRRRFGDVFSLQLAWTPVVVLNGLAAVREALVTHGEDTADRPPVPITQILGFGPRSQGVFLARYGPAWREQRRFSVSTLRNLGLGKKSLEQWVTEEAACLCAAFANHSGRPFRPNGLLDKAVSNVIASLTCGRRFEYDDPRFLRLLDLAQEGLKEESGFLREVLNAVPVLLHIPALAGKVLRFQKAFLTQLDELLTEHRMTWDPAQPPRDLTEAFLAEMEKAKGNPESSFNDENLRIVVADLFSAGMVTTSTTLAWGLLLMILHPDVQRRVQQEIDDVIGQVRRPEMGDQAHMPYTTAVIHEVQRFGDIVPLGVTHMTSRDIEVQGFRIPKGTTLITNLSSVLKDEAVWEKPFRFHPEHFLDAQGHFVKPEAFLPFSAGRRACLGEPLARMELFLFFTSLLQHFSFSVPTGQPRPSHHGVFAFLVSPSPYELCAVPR

[31] = Half life in human liver microsomes at 1 uM after 5 to 30 mins by MS analysis in presence of NADPH; assay type: ADME, Microsome
[32] = AUC (0 to infinity) in monkey at 5 mg/kg, po after 24 hrs by LC/MS/MS analysis; assay type: ADME, organism-based, Macaca mulatta; set-up: time infinity, dose 5 mg/kg, route oral; settings: rhesus monkey, plasma
[33] = Cmax in Sprague-Dawley rat at 2 mg/kg, iv after 24 hrs by LC/MS/MS analysis; assay type: ADME, organism-based; set-up: dose 2 mg/kg, route intravenous; settings: in vivo
[34] = Apparent volume of distribution in monkey at 1 mg/kg, iv after 24 hrs by LC/MS/MS analysis; assay type: ADME, organism-based, Macaca mulatta; set-up: dose 1 mg/kg, route intravenous; settings: rhesus monkey, in vivo, read-out: Vz
[35] = Cmax in Sprague-Dawley rat at 10 mg/kg, po after 24 hrs by LC/MS/MS analysis; assay type: ADME, organism-based; set-up: dose 10 mg/kg, route oral; settings: in vivo
[36] = tested on: Hepatocyte; experiment: Cellular uptake in human hepatocytes assessed per mg of cellular protein association with hepatocyte fraction at 0.378 uM after 1 hr by LC/MS/MS analysis; assay type: ADME, cell-based
[37] = tested on: Jurkat; experiment: cells; settings: Homo sapiens
[38] = Systemic clearance in monkey at 1.4 mg/kg, iv after 24 hrs by LC/MS/MS analysis; assay type: ADME, organism-based, Macaca mulatta; set-up: dose 1.4 mg/kg, route intravenous; settings: rhesus monkey, in vivo
[39] = AUC (2 to 24 hrs) in Sprague-Dawley rat liver at 30 mg/kg, po by LC/MS/MS analysis; assay type: ADME, organism-based; set-up: time upper 24 hr, time lower 2 hr, dose 30 mg/kg, route oral
[40] = Cmax in monkey at 5 mg/kg, po after 24 hrs by LC/MS/MS analysis; assay type: ADME, organism-based, Macaca mulatta; set-up: dose 5 mg/kg, route oral; settings: rhesus monkey, in vivo
[41] = tested on: PBMC; experiment: Cytotoxicity against human PBMC at 0.0031 uM after 18 hrs; assay type: cell-based
[42] = Cmax in Sprague-Dawley rat liver at 10 mg/kg, iv by LC/MS/MS analysis; assay type: ADME, organism-based; set-up: dose 10 mg/kg, route intravenous
[43] = Cmax in Sprague-Dawley rat at 20 mg/kg, po after 24 hrs by LC/MS/MS analysis; assay type: ADME, organism-based; set-up: dose 20 mg/kg, route oral; settings: in vivo
[44] = tested on: Hepatitis C virus; experiment: microbe, parasite or virus in culture; settings: Huh-7, 120 h
Description: Antiviral activity against Hepatitis C virus infected in human Huh7ET cells assessed as inhibition of viral replication after 120 hrs by RT-PCR analysis

[45] = Cmax in Sprague-Dawley rat at 5 mg/kg, po after 24 hrs by LC/MS/MS analysis; assay type: ADME, organism-based; set-up: dose 5 mg/kg, route oral; settings: in vivo
[46] = AUC (0 to infinity) in Sprague-Dawley rat at 5 mg/kg, po after 24 hrs by LC/MS/MS analysis; assay type: ADME, organism-based; set-up: time infinity, dose 5 mg/kg, route oral; settings: plasma
[47] = tested on: Hepatitis C virus; experiment: microbe, parasite or virus in culture; settings: Huh-7
Description: Antiviral activity against Hepatitis C virus infected in human Huh7ET cells assessed as suppression of full length viral RNA replication after 24 to 72 hrs by luciferase reporter gene assay

[48] = tested on: PBMC; experiment: Antiinflammatory activity in human PBMC assessed as inhibition of anti-CD3/CD28 antibody-induced IL-2 production treated for 1 hr before anti-CD3/CD28 antibody challenge measured after 6 hrs by immunosuppression assay; assay type: functional, cell-based; settings: read-out: EC50

Question: For `C/C=C/C[C@@H](C)[C@@H](O)[C@H]1C(=O)N[C@@H](CC)C(=O)N(C)C(SCCN(C)C)C(=O)N(C)[C@@H](CC(C)(C)O)C(=O)N[C@@H](C(C)C)C(=O)N(C)[C@@H](CC(C)C)C(=O)N[C@@H](C)C(=O)N[C@H](C)C(=O)N(C)[C@@H](CC(C)C)C(=O)N(C)[C@@H](CC(C)C)C(=O)N(C)[C@@H](C(C)C)C(=O)N1C` (single isomer, unassigned) [SCY 635], which AUC(0-t) [1] is on record?
Answer: 30200 ng·h/mL

Question: And the half-life [2]?
Answer: 26.3 h

Question: What about the AUC(0-inf) [3] of the same compound?
Answer: 59200 ng·h/mL

Question: And the EC50 [4]?
Answer: 70 nM

Question: What about the AUC(0-inf) [5] of the same compound?
Answer: 49900 ng·h/mL

Question: What about the EC50 [6] of the same compound?
Answer: 160 nM

Question: What about the bioavailability [7] of the same compound?
Answer: 15.7%

Question: What about the half-life [8] of the same compound?
Answer: 33.1 h

Question: And the AUC(0-t) [9]?
Answer: 120000 ng·h/mL

Question: What about the EC50 [10] of the same compound?
Answer: 120 nM

Question: And the AUC(0-inf) [11]?
Answer: 42500 ng·h/mL

Question: What about the AUC(0-inf) [12] of the same compound?
Answer: 37300 ng·h/mL

Question: And the clearance [13]?
Answer: 1.48 mL/min/kg

Question: What about the clearance [14] of the same compound?
Answer: 14 µL/min/mg

Question: What about the CC50 at 72 h [15] of the same compound?
Answer: 14200 nM

Question: And the half-life [16]?
Answer: 22.2 h

Question: What about the bioavailability [17] of the same compound?
Answer: 17.7%

Question: And the IC50 [18]?
Answer: 58500 nM

Question: And the viability at 18 h, 10 µM [19]?
Answer: 10.9%

Question: What about the Activity [20] of the same compound?
Answer: tde

Question: And the Vd [21]?
Answer: 1.69 L/kg

Question: What about the Tmax [22] of the same compound?
Answer: 2.7 h

Question: And the clearance [23]?
Answer: 0.528 mL/min/kg

Question: And the half-life [24]?
Answer: 42.2 h

Question: What about the half-life [25] of the same compound?
Answer: 21.4 h

Question: And the AUC(0-inf) [26]?
Answer: 42000 ng·h/mL

Question: And the Drug uptake [27]?
Answer: 0.55 ng/mg

Question: And the AUC(0-inf) [28]?
Answer: 22500 ng·h/mL

Question: What about the AUC(0-inf) [29] of the same compound?
Answer: 26500 ng·h/mL

Question: And the IC50 [30]?
Answer: > 100000 nM

Question: What about the half-life at 1 µM [31] of the same compound?
Answer: 1.05 h

Question: What about the AUC(0-inf) [32] of the same compound?
Answer: 27900 ng·h/mL

Question: What about the Cmax [33] of the same compound?
Answer: 1510 ng/mL

Question: And the Vd [34]?
Answer: 1.02 L/kg

Question: What about the Cmax [35] of the same compound?
Answer: 1400 ng/mL

Question: What about the Drug uptake [36] of the same compound?
Answer: 1.03 ng/mg

Question: What about the EC50 [37] of the same compound?
Answer: 9900 nM

Question: What about the clearance [38] of the same compound?
Answer: 0.47 mL/min/kg

Question: And the AUC(0-t) [39]?
Answer: 141000 ng·h/mL

Question: What about the Cmax [40] of the same compound?
Answer: 1810 ng/mL

Question: What about the Activity [41] of the same compound?
Answer: Non-toxic

Question: What about the Cmax [42] of the same compound?
Answer: 13500 ng/mL

Question: And the Cmax [43]?
Answer: 1760 ng/mL

Question: And the EC50 [44]?
Answer: 150 nM

Question: And the Cmax [45]?
Answer: 900 ng/mL

Question: And the AUC(0-inf) [46]?
Answer: 13000 ng·h/mL

Question: What about the EC50 [47] of the same compound?
Answer: 130 nM

Question: And the EC50 [48]?
Answer: 5300 nM
